Assay: organoleptic research (sweetness compared with sucrose)
Settings: reference sucrose

## COC(=O)[C@@H](NC(=O)[C@H](CC(=O)O)NC(=O)NC=O)c1ccccc1 [II, N-(N'-formyl)-carbamyl-L-alpha-aspartyl-L-phenylglycinemethylester]
  sweetness relative to sucrose: 200 times sweeter than sucrose

Reference: US4371464A, “Dipeptide sweetener” (Stamicarbon, B.V., priority 1980, dated 1983)
